From patent EP4471049A1 (Zealand Pharma A/S, priority 2023, dated 2024)
*1 amine or outer side, *2 acyl side, *3 side chain or, on linkers, in order; H or OH if unused. Where a SMILES comes first, the peptide text is derived from it. Bridges are numbered along the chain shown (N, C = ends). [ ]: non-standard residue; d: D form. 2Nal = N[C@@H](Cc1ccc2ccccc2c1)C(=O)O; AEF = NCCOc1ccc(C[C@H](N)C(=O)O)cc1; X1 = O=C(Cc1ccc(CN[*:1])cc1)[*:2]; 3Pal = N[C@@H](Cc1cccnc1)C(=O)O; αMeL = CC(C)C[C@](C)(N)C(=O)O; Dab = NCC[C@H](N)C(=O)O

Tests used:
[1] = Peptide stability in simulated gastric fluid (SGF); type: in vitro ADME; settings: 37 °C, pH 1.2, porcine pepsin 3.2 g/L; for remaining at 4 h, 10 µM / remaining at 1 h, 10 µM: pig, simulated gastric fluid (SGF) with porcine pepsin
Protocol: (§1) SGF was prepared by dissolving sodium chloride (0.2 g) in 50 mL of water. A volume of 0.7 mL of 10 M HCl was added to adjust the pH of the solution to 1.2 and the volume made up to 100 mL with water. […] SIF was prepared by dissolving monobasic potassium phosphate (0.68 g) in 50 mL of water and adjusting the pH to 6.8 with 1 M NaOH. The volume was subsequently made up to 100 mL with water. 200 mg porcine pancreatin (P1625, Sigma Aldrich) was gently dissolved into 20 mL preheated (37 °C) solution (10 g/L) immediately prior to the incubation.
(§2) The incubation was performed at 37 °C with gentle shaking. […] After the last timepoint, the sampling plate was mixed for 10 min on a shaking table and centrifuged 10 min at 2200 g. 70 µL resulting supernatant was diluted with 150 µL water, mixed and centrifugated before analysis by liquid chromatography high resolution mass spectrometry. […] Percent remaining at each timepoint was calculated relative to timepoint zero based on absolute peak areas.
Compounds with a SGF stability (after 4 h) above 70% are considered highly SGF stable. […] Table 3-4: SGF data

[2] = Peptide stability in simulated intestinal fluid (SIF); type: in vitro ADME; settings: 37 °C, pH 6.8, porcine pancreatin 10 g/L, 10 µM; for remaining at 4 h, 10 µM / remaining at 1 h, 10 µM: pig, simulated intestinal fluid (SIF) with porcine pancreatin; for remaining at 4 h, 10 µM: read-out: SIF (% remaining 4 h)
Protocol: as §1, §2
Compounds with a SIF stability (after 4 h) above 70% are considered highly SIF stable.

human IL-23R = molecular target: T1, human IL-23R (Homo sapiens, UniProt Q5VWK5); assay: biochemical; settings: for Emax: read-out: % displacement (hIL-23R binding)
T1 sequence (Q5VWK5 22-629): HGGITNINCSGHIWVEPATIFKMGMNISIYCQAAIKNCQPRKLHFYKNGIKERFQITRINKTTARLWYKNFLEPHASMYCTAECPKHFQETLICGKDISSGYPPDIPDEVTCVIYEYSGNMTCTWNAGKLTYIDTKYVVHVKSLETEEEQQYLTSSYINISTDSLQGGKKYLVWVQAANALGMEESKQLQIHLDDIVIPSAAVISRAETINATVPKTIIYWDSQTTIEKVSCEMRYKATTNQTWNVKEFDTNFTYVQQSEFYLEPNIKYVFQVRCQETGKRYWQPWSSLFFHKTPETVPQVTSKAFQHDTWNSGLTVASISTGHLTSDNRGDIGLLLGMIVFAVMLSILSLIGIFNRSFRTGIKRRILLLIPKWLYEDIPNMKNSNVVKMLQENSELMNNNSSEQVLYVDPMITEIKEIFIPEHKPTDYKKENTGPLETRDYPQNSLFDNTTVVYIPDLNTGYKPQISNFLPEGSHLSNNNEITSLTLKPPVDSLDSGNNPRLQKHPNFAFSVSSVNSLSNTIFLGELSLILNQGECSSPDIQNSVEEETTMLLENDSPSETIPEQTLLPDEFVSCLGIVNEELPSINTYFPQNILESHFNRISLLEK
Method in brief: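 Membranes from HEK293 cells stably expressing Nluc-tagged human IL-23R were incubated 2 h at room temperature with test compound and a fluorophore-labelled tracer. After substrate addition, loss of BRET (TAMRA over luciferase emission) reported tracer displacement. A 4PL fit gave IC50 values.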

Compound | SGF (% remaining 1 h) ([1]; 1 h, 10 µM) | SGF (% remaining 4 h) ([1]; 4 h, 10 µM) | SIF (% remaining 1 h) ([2]; 1 h) | SIF (% remaining 4 h) ([2]; 4 h) | % displacement (hIL-23R binding) (human IL-23R) | remaining at 4 h, 10 µM ([1]; 4 h) | remaining at 4 h, 10 µM ([2]; 4 h) | Emax (human IL-23R) | IC50 (human IL-23R) | remaining at 1 h, 10 µM ([1]; 1 h) | remaining at 1 h, 10 µM ([2]; 1 h)
CC(C)C[C@@H]1NC(=O)[C@H](Cc2c[nH]c3ccccc23)NC(=O)[C@H](Cc2c[nH]c3ccccc23)NC(=O)[C@@H]2CSCC(=O)CSC[C@H](NC(=O)[C@H](CO)NC(=O)[C@@H](NC(=O)[C@@H](N)CC(=O)O)CSCC(=O)CSC[C@@H](C(=O)N[C@@H](CCCNC(=N)N)C(N)=O)NC1=O)C(=O)N[C@@H](Cc1c[nH]c3ccccc13)C(=O)N[C@@H](CCC(N)=O)C(=O)N2 (single isomer, unassigned) [I3 (isomer 3), H-DC(1a)SC(2a)WQC(2a)WWLC(1a)R-[NH2], reference compound] | 5% | 0% | 0% | 0% | – | – | – | – | – | – | –
CC(C)C[C@]1(C)NC(=O)[C@H](Cc2ccc3ccccc3c2)NC(=O)[C@H](Cc2ccc(OCCN)cc2)NC(=O)[C@@H]2CCNC(=O)CC[C@H](NC(=O)[C@H](CO)NC(=O)Cc3ccc(cc3)CNC(=O)CC[C@@H](C(=O)N[C@@H](CCN)C(=O)N[C@@H](Cc3cn(C)cn3)C(N)=O)NC1=O)C(=O)N[C@@H](Cc1c[nH]c3ccccc13)C(=O)N[C@@H](CCC(N)=O)C(=O)N2 [Compound 14, [4-Aminomethyl-phenylacetyl](1c)*SE(2c)WQ[Dab](2c)[Y(2-aminoethoxy)][2-Nal][2-Me-Leu]E(1c)[Dab][H(Me)]-[NH2]] | – | – | – | – | 102% | 82% | 75% | – | – | – | –
CNC(=O)[C@H](Cc1cccnc1)NC(=O)[C@H](CCN)NC(=O)[C@@H]1CCC(=O)NCc2ccc(cc2)CC(=O)N[C@@H](CO)C(=O)N[C@H]2CCC(=O)NCC[C@H](NC(=O)[C@H](CCNC(C)=O)NC(=O)[C@H](Cc3c[nH]c4ccccc34)NC2=O)C(=O)N[C@@H](Cc2ccc(OCCN)cc2)C(=O)N[C@@H](Cc2ccc3ccccc3c2)C(=O)N[C@@](C)(CC(C)C)C(=O)N1 [Compound 25, [4-Aminomethyl-phenylacetyl](1c)*SE(2c)W[Dab(Ac)][Dab](2c)[Y(2-aminoethoxy)][2-Nal][2-Me-Leu]E(1c)[Dab][3-(3-Pyridyl)-Ala]-[NHMe]] ([X1]SEW[Dab](Ac)[Dab][AEF][2Nal][αMeL]E[Dab][3Pal]-NHMe; lactam 3-6, N-10) | – | – | – | – | – | 88% | 91% | 93% | – | – | –
CCCC[C@H](NC(=O)[C@@H]1CCC(=O)NCc2ccc(cc2)CC(=O)N[C@@H](CO)C(=O)N[C@H]2CCC(=O)NCC[C@H](NC(=O)[C@H](CCC(N)=O)NC(=O)[C@H](Cc3c[nH]c4ccccc34)NC2=O)C(=O)N[C@@H](Cc2ccc(OCCN)cc2)C(=O)N[C@@H](Cc2ccc3ccccc3c2)C(=O)N[C@@](C)(CC(C)C)C(=O)N1)C(=O)N[C@@H](Cc1cccnc1)C(=O)NC [Compound 32, [4-Aminomethyl-phenylacetyl](1c)*SE(2c)WQ[Dab](2c)[Y(2-aminoethoxy)][2-Nal][2-Me-Leu]E(1c)[Nle][3-(3-Pyridyl)-Ala]-[NHMe]] | – | – | – | – | 98% | – | 65% | – | 27 pM | 96% | –
CNC(=O)[C@H](Cc1cccnc1)NC(=O)[C@H](CCC(N)=O)NC(=O)[C@@H]1CCC(=O)NCc2ccc(cc2)CC(=O)N[C@@H](CO)C(=O)N[C@H]2CCC(=O)NCC[C@H](NC(=O)[C@H](CCC(N)=O)NC(=O)[C@H](Cc3c[nH]c4ccccc34)NC2=O)C(=O)N[C@@H](Cc2ccc(OCCN)cc2)C(=O)N[C@@H](Cc2ccc3ccccc3c2)C(=O)N[C@@](C)(CC(C)C)C(=O)N1 [Compound 33, [4-Aminomethyl-phenylacetyl](1c)*SE(2c)WQ[Dab](2c)[Y(2-aminoethoxy)][2-Nal][2-Me-Leu]E(1c)Q[3-(3-Pyridyl)-Ala]-[NHMe]] ([X1]SEWQ[Dab][AEF][2Nal][αMeL]EQ[3Pal]-NHMe; lactam 3-6, N-10) | – | – | – | – | – | 93% | 69% | 92% | 14 pM | – | –
CNC(=O)[C@H](Cc1cccnc1)NC(=O)[C@H](Cc1c[nH]cn1)NC(=O)[C@@H]1CCC(=O)NCc2ccc(cc2)CC(=O)N[C@@H](CO)C(=O)N[C@H]2CCC(=O)NCC[C@H](NC(=O)[C@H](CCC(N)=O)NC(=O)[C@H](Cc3c[nH]c4ccccc34)NC2=O)C(=O)N[C@@H](Cc2ccc(OCCN)cc2)C(=O)N[C@@H](Cc2ccc3ccccc3c2)C(=O)N[C@@](C)(CC(C)C)C(=O)N1 [Compound 34, [4-Aminomethyl-phenylacetyl](1c)*SE(2c)WQ[Dab](2c)[Y(2-aminoethoxy)][2-Nal][2-Me-Leu]E(1c)H[3-(3-Pyridyl)-Ala]-[NHMe]] ([X1]SEWQ[Dab][AEF][2Nal][αMeL]EH[3Pal]-NHMe; lactam 3-6, N-10) | – | – | – | – | 90% | – | 56% | – | 13 pM | 96% | 87%
CNC(=O)[C@H](Cc1cccnc1)NC(=O)C1(NC(=O)[C@@H]2CCC(=O)NCc3ccc(cc3)CC(=O)N[C@@H](CO)C(=O)N[C@H]3CCC(=O)NCC[C@H](NC(=O)[C@H](CCC(N)=O)NC(=O)[C@H](Cc4c[nH]c5ccccc45)NC3=O)C(=O)N[C@@H](Cc3ccc(OCCN)cc3)C(=O)N[C@@H](Cc3ccc4ccccc4c3)C(=O)N[C@@](C)(CC(C)C)C(=O)N2)CCOCC1 [Compound 35, [4-Aminomethyl-phenylacetyl](1c)*SE(2c)WQ[Dab](2c)[Y(2-aminoethoxy)][2-Nal][2-Me-Leu]E(1c)[THP][3-(3-Pyridyl)-Ala]-[NHMe]] | – | – | – | – | 101% | 94% | – | – | – | – | 110%
CNC(=O)[C@H](Cc1cccnc1)NC(=O)[C@H](CCO)NC(=O)[C@@H]1CCC(=O)NCc2ccc(cc2)CC(=O)N[C@@H](CO)C(=O)N[C@H]2CCC(=O)NCC[C@H](NC(=O)[C@H](CCC(N)=O)NC(=O)[C@H](Cc3c[nH]c4ccccc34)NC2=O)C(=O)N[C@@H](Cc2ccc(OCCN)cc2)C(=O)N[C@@H](Cc2ccc3ccccc3c2)C(=O)N[C@@](C)(CC(C)C)C(=O)N1 [Compound 36, [4-Aminomethyl-phenylacetyl](1c)*SE(2c)WQ[Dab](2c)[Y(2-aminoethoxy)][2-Nal][2-Me-Leu]E(1c)[hSer][3-(3-Pyridyl)-Ala]-[NHMe]] | – | – | – | – | 94% | – | 55% | – | 14 pM | 96% | –
CNC(=O)[C@H](Cc1cccnc1)NC(=O)[C@H](COC)NC(=O)[C@@H]1CCC(=O)NCc2ccc(cc2)CC(=O)N[C@@H](CO)C(=O)N[C@H]2CCC(=O)NCC[C@H](NC(=O)[C@H](CCC(N)=O)NC(=O)[C@H](Cc3c[nH]c4ccccc34)NC2=O)C(=O)N[C@@H](Cc2ccc(OCCN)cc2)C(=O)N[C@@H](Cc2ccc3ccccc3c2)C(=O)N[C@@](C)(CC(C)C)C(=O)N1 [Compound 37, [4-Aminomethyl-phenylacetyl](1c)*SE(2c)WQ[Dab](2c)[Y(2-aminoethoxy)][2-Nal][2-Me-Leu]E(1 c)[Ser(OMe)][3-(3-Pyridyl)-Ala]-[NHMe]] | – | – | – | – | 95% | – | 69% | – | 13 pM | 97% | 78%
CNC(=O)[C@H](Cc1cccnc1)NC(=O)[C@@H](CO)NC(=O)[C@@H]1CCC(=O)NCc2ccc(cc2)CC(=O)N[C@@H](CO)C(=O)N[C@H]2CCC(=O)NCC[C@H](NC(=O)[C@H](CCC(N)=O)NC(=O)[C@H](Cc3c[nH]c4ccccc34)NC2=O)C(=O)N[C@@H](Cc2ccc(OCCN)cc2)C(=O)N[C@@H](Cc2ccc3ccccc3c2)C(=O)N[C@@](C)(CC(C)C)C(=O)N1 [Compound 38, [4-Aminomethyl-phenylacetyl](1c)*SE(2c)WQ[Dab](2c)[Y(2-aminoethoxy)][2-Nal][2-Me-Leu]E(1c)[{d}S][3-(3-Pyridyl)-Ala]-[NHMe]] | – | – | – | – | 102% | 91% | 65% | – | 66 pM | – | –
